The text below walks through data of patent EP2764866A1, “Inhibitors of nedd8-activating enzyme” (IP Gesellschaft für Management mbH, priority 2013, dated 2014).

Converted amounts (≈) assume the structure as drawn. Structures can show the parent of a compound that is named as a salt. Where two headings read alike, the source gives them in different places.

By pKa is commonly meant the negative logarithm of the acid dissociation constant. As usually defined, the solubility is the dissolved amount per volume that the medium holds. The term IC50 denotes the midpoint of a concentration-inhibition curve.

Data set [1] has as its system Ba/F3 cells where c-mpl was not introduced. As to the kind of experiment: Cell proliferation test in Ba/F3 cells without c-mpl. The format is cell-based.
The next data set relates to human c-mpl-Ba/F3 cell. Nature of the data set: Mouse oral administration test (plasma activity in the c-mpl-Ba/F3 proliferation system). The format is in vivo, male ICR mice. Conditions: for Cell proliferation activity (%) 0.3%: 0.3% blood plasma concentration; for oral absorption: conclusion from the mouse oral administration test; for activity at 3 mg/kg: Mus musculus, po, 2 h.

Another data set deals with Human c-mpl-Ba/F3 cells. Nature of the data set: Cell proliferation test for human c-mpl-Ba/F3 cells. Format: cell-based. Here is the method: Test Example I Cell Proliferation Test for Human c-mpl-Ba/F3 Cells: Human c-mpl-Ba/F3 cells at a concentration of 2 x 10^5 cells/mL were cultured at 37 °C on a 96 well microplate using RPMI 1640 culture medium (100 microliter/well) containing 10% fetal calf serum to which various concentrations of the test compound was added. After 24 hours from the start of culturing, 10 microliter/well of WST-1/1-methoxy PMS (cell measuring kit, Dojin) was added. Immediately after the addition and two hours later, the A450/A650 absorbance was measured using a microplate reader (Model 3350, Bio-Rad), and the increase in absorbance after 2 hours was interpreted to represent the proliferation activity of each test compound. […] Furthermore, the maximum cell proliferation activity of compound X maleic acid salt C type crystals ({drug1b}) was 102%, based on the maximum cell proliferation activity of rhTPO being 100%. […] Therefore, compound X maleic acid salt C type crystals ({drug1b}) are useful for treating and preventing various types of thrombocytopenia by having a thrombocytosis effect. […]

A further data set in a line: pKa. The format is physicochemical. The source says: Suitable alkalizing agents include but are not limited to organic and inorganic basic compounds of a wide range of aqueous solubilities and molecular weights and mixtures thereof. Examples of inorganic basic salts include ammonium hydroxide, alkali metal salts, alkaline earth metal salts such as magnesium oxide, magnesium hydroxide, calcium hydroxide, sodium hydroxide, potassium hydroxide, aluminium hydroxide, potassium carbonate, sodium bicarbonate and the like and mixtures thereof. In particular, an alkalizing agent is selected from magnesium oxide, calcium carbonate, calcium phosphate and combinations thereof. More particularly, the alkalizing agent is magnesium oxide. […] Examples of precipitation inhibitors include but are not limited to polyvinyl pyrrolidone, for example those products known as PVP K30, PVP K29/32 and PVPP XL, and hydroxy propyl methyl cellulose (HPMC), for example those products known as […]® low viscous hypromellose-based water-soluble film coating agent. […] As used herein, the term "oral dosage form" refers to physically discrete units suitable as unitary dosages for humans and other mammals, each unit containing a predetermined quantity of a therapeutic agent in association with one or more pharmaceutically acceptable carrier. […]

The nature of another data set: physchem. Conditions: pH 1.2, simulated gastric fluid.
A short description of data set [2]: Hygroscopicity (water absorbed). Format: physicochemical.
The conditions of data set [3]: dosed at 10mg/kg, compared to the free acid form.
For data set [4] the following is noted: pH 1, compared to the free acid form.
For data set [5] the following is noted: from COC(=O)[C@@H]1C[C@@H](Oc2nc3cc(OC)ccc3nc2C#CCCC[C@@H]2C[C@H]2OC(=O)N[C@H](C(=O)O)C(C)(C)C)CN1; amide bond; HATU; DMAc; 86.2 mM; 0.0 °C; 12.0 h.
Data set [6] can be described thus: Pharmacokinetics of Compound [1] in Phase I and II studies. Conditions: continuous daily dosing regimen, doses of 400 mg/day and above.
Another data set concerns HCC78 cells. As to the kind of experiment: cells. Conditions: Homo sapiens, HCC78, read-out: IC50 for inhibition of HCC78 cell viability.
[7] abbreviates: 3 mg/kg orally, blood 2 hours after administration, maximum activity of each test compound = 100%.

As for `O=C(Nc1nc(-c2cc(Cl)cs2)c(N2CCN(C3CCCCC3)CC2)s1)c1cnc(N2CCC(C(=O)O)CC2)c(Cl)c1.O=C(O)/C=C\C(=O)O` [Compound X maleic acid salt C type crystal] [1-(3-chloro-5-{[4-(4-chlorothiophen-2-yl)-5-(4-cyclohexylpiperazin-1-yl)thiazol-2-yl]carbamoyl}pyridin-2-yl) piperidine-4-carboxylic acid maleic acid salt], in [1], the cell proliferation effect entry is given as “not observed”. The “Cell proliferation activity (%) 0.3%” value with human c-mpl-Ba/F3 cell (setting [7]) was > 80%. The oral absorption entry in the data set on human c-mpl-Ba/F3 cell is recorded as “excellent oral absorption”. The “maximum cell proliferation activity” value in the data set on Human c-mpl-Ba/F3 cells (based on the maximum cell proliferation activity of rhTPO being 100%) is on record as 102%.
As for `CCC(CC)Nc1c(Nc2ccc(Cl)c(S(=O)(=O)N(C)OC)c2O)c(=O)c1=O` [free acid, 6-chloro-3-[2-(1-ethyl-propylamino)-3,4-dioxo-cyclobut-1-enylamino]-2-hydroxy-N-methoxy-N-methyl-benzenesulfonamide, reference compound], the pKa in the data set “pKa” was 5.4. This molecule also yielded a solubility in the data set “physchem” of 1 µg/mL (≈ 2.32 µM). The “amount of water absorbed” value in [2] (after 1 day at 80% humidity) stood at 2.4 % by weight; in data set [2] (after 1 day at 92% humidity) it was 2.8 % by weight.
`O=C(Nc1nc(-c2cc(Cl)cs2)c(N2CCN(C3CCCCC3)CC2)s1)c1cnc(N2CCC(C(=O)O)CC2)c(Cl)c1` [1-(3-chloro-5-{[4-(4-chlorothiophen-2-yl)-5-(4-cyclohexylpiperazin-1-yl)thiazol-2-yl]carbamoyl}pyridin-2-yl) piperidine-4-carboxylic acid maleic acid salt]: the activity at 3 mg/kg with human c-mpl-Ba/F3 cell (3 mg/kg orally, blood 2 hours after administration, 0.1% blood plasma concentration, maximum activity of each test compound = 100%, read-out: Cell proliferation activity (%) 0.1%) was 30%. Also, the EC50 with Human c-mpl-Ba/F3 cells (Homo sapiens, 24 hours culture, WST-1/1-methoxy PMS readout, read-out: cell proliferation effect, EC50) turned out to be 0.002 µM.
On to `O=C(Nc1nc(-c2cc(Cl)cs2)c(N2CCN(C3CCCCC3)CC2)s1)c1cnc(N2CCC(C(=O)O)CC2)c(Cl)c1` [Compound X hydrochloride, reference compound], for which the “Cell proliferation activity (%) 0.3%” value in the data set with human c-mpl-Ba/F3 cell (setting [7]) is given as < 10%. Besides, the “Cell proliferation activity (%) 10%” value in the data set with human c-mpl-Ba/F3 cell (3 mg/kg orally, blood 2 hours after administration, 10% blood plasma concentration, maximum activity of each test compound = 100%) turned out to be 34%.
Take `CCC(CC)Nc1c(Nc2ccc(Cl)c(S(=O)(=O)N(C)OC)c2O)c(=O)c1=O` [choline salt, 6-chloro-3-[2-(1-ethyl-propylamino)-3,4-dioxo-cyclobut-1-enylamino]-2-hydroxy-N-methoxy-N-methyl-benzenesulfonamide choline]: the oral exposure result in data set [3] is on record as “much improved”. Further, the “amount of water absorbed” value was determined as 0.7 % by weight in data set [2] (after 1 day at 80% humidity) and 0.6 % by weight in data set [2] (after 1 day at 92% humidity). Besides, in data set [4], the dissolution rate result is “much improved”.
Regarding `O=C(Nc1nc(-c2cc(Cl)cs2)c(N2CCN(C3CCCCC3)CC2)s1)c1cnc(N2CCC(C(=O)O)CC2)c(Cl)c1.O=C(O)/C=C\C(=O)O` [Compound X maleic acid salt A type crystal] [1-(3-chloro-5-{[4-(4-chlorothiophen-2-yl)-5-(4-cyclohexylpiperazin-1-yl)thiazol-2-yl]carbamoyl}pyridin-2-yl) piperidine-4-carboxylic acid maleic acid salt, reference compound], the “Cell proliferation activity (%) 0.3%” value in the data set with human c-mpl-Ba/F3 cell (setting [7]) is given as 55%. Also, in the data set on human c-mpl-Ba/F3 cell (listed as compound X maleic acid salt A type crystals), the oral absorption entry is listed as “excellent oral absorption”.
Molecule `COC(=O)[C@@H]1C[C@@H]2CN1C(=O)[C@H](C(C)(C)C)NC(=O)O[C@@H]1C[C@H]1CCCC#Cc1nc3ccc(OC)cc3nc1O2` gave a ring closure, yield of all isomers in data set [5] of 88.6%.
`O=C(Nc1nc(-c2cc(Cl)cs2)c(N2CCN(C3CCCCC3)CC2)s1)c1cnc(N2CCC(C(=O)O)CC2)c(Cl)c1` [1-(3-chloro-5-{[4-(4-chlorothiophen-2-yl)-5-(4-cyclohexylpiperazin-1-yl)thiazol-2-yl]carbamoyl}pyridin-2-yl) piperidine-4-carboxylic acid maleic acid salt, reference compound]: in the data set on human c-mpl-Ba/F3 cell (3 mg/kg orally, blood 2 hours after administration, 10% blood plasma concentration, maximum activity of each test compound = 100%, read-out: Cell proliferation activity (%) 10%), the activity at 3 mg/kg was > 80%.
On to `O=C(Nc1nc(-c2cc(Cl)cs2)c(N2CCN(C3CCCCC3)CC2)s1)c1cnc(N2CCC(C(=O)O)CC2)c(Cl)c1.O=C(O)/C=C\C(=O)O` [Compound X maleic acid salt B type crystal] [1-(3-chloro-5-{[4-(4-chlorothiophen-2-yl)-5-(4-cyclohexylpiperazin-1-yl)thiazol-2-yl]carbamoyl}pyridin-2-yl) piperidine-4-carboxylic acid maleic acid salt], for which, in the data set with human c-mpl-Ba/F3 cell (setting [7]), the “Cell proliferation activity (%) 0.3%” value is listed as < 10%. In addition, in the data set on human c-mpl-Ba/F3 cell (listed as compound X maleic acid B type crystals), the oral absorption entry is recorded as “inferior oral absorption”.
On to `CN1CCN(c2ccc3nc(-c4c(N)c5c(F)cccc5[nH]c4=O)[nH]c3c2)CC1` [Compound [1]], for which the exposure entry in data set [6] is reported as “prolonged over-proportional exposure”.
In the case of `C[C@@H](Oc1cc(-c2cnn(C3CCNCC3)c2)cnc1N)c1c(Cl)ccc(F)c1Cl` [Crizotinib, 3-[(R)-1-(2,6-dichloro-3-fluoro-phenyl)-ethoxy]-5-(1-piperidin-4-yl-1-H -pyrazol-4-yl)-pyridin-2-ylamine], the half-inhibitory concentration (IC50) in the data set with HCC78 cells is ~0.059 µM.
